According to paper PMC8224630, “Cytotoxicity and Nitric Oxide Production Inhibitory Activities of Compounds Isolated from the Plant Pathogenic Fungus Curvularia sp” (Journal of Fungi, 2021):
Read-outs that look alike come from different tables or passages of the source.

What was measured:
[1] = tested on: nitric oxide (NO) production in RAW 264.7 cells; assay: Nitric oxide (NO) production inhibitory assay, LPS-stimulated RAW 264.7 cells, Griess reagent; type: cell-based; settings: for inhibition at 100 µg/mL: read-out: % of NO Inhibition at 100 µg/mL; for IC50: read-out: NO Production Inhibition IC50
Experimental: This assay was performed as previously described. […] After 24 h, 100 µL of Griess reagent was added to the samples for 10 min. […] Additionally, the data are presented as the IC50, which was calculated with GraphPad Prism 6.0 software.

[2] = Cytotoxicity assay against leukemic K562 cells, MTT; settings: human, K562 leukemic cells
Experimental: (§1) Lung cancer A549 and colorectal cancer SW480 cells were maintained with Dulbecco’s modified Eagle’s medium (DMEM) containing 10% fetal bovine serum (FBS) and 1% penicillin/streptomycin. Leukemic K562 cells were cultured in RPMI-1640 supplemented with 10% fetal bovine serum (FBS) and 1% penicillin/streptomycin. All cells were cultured in 96-well plates at 37 °C in 5% CO2, followed by treatment with the sample for 24 h. After the incubation period, 0.5 mg/mL MTT was added to the cells and left for 4 h. The formazan was dissolved in DMSO and measured at 570 nm using Biochrom EZ Read 400 ELISA microplate reader (Biochrom Ltd., Cambridge, UK).

[3] = Cytotoxicity assay in mammalian cells (RAW 264.7), MTT; settings: mouse, RAW 264.7 cells
Experimental: (§2) Cell viability was measured by the MTT assay. RAW 264.7 cells were seeded at 4 × 10^4 cells/well in 96-well plates and incubated at 37 °C and 5% CO2 overnight. Cells were treated with different concentrations of tea extracts, including 3.125, 6.25, 12.5, 25, 50, and 100 µg/mL, for 24 h. After 24 h, cells were washed with PBS and incubated with 0.5 mM MTT reagent for 4 h. The detection of formazan at 570 nm was performed with a Biochrom EZ Read 400 ELISA microplate reader (Biochrom Ltd., Cambridge, UK). The data were calculated as IC50 values with GraphPad Prism 6.0 software.

[4] = Cytotoxicity assay against lung cancer A549 cells, MTT; settings: human, A549 lung cancer cells
Experimental: as §1

[5] = Cytotoxicity assay against colorectal cancer SW480 cells, MTT; settings: human, SW480 colorectal cancer cells
Experimental: as §1

[6] = tested on: leukemic K562 cells; assay: Cytotoxicity assay against leukemic K562 cells, MTT; settings: Homo sapiens, K562, 24 h, read-out: IC50 cytotoxicity K562 (Leukemic Cells)
Experimental: as §1

[7] = tested on: lung cancer A549 cells; assay: Cytotoxicity assay against lung cancer A549 cells, MTT; settings: Homo sapiens, A549, 24 h, read-out: IC50 cytotoxicity A549 (Lung Cancer)
Experimental: as §1

[8] = tested on: colorectal cancer SW480 cells; assay: Cytotoxicity assay against colorectal cancer SW480 cells, MTT; settings: Homo sapiens, SW480, 24 h, read-out: IC50 cytotoxicity SW480 (Colorectal Cancer)
Experimental: as §1

[9] = in vitro; settings: mouse
Experimental: as §2

[10] = tested on: lung cancer (A549) cell line; set-up: method as in doi:10.1007/s10600-015-1259-y; settings: 30 µg/mL; cited from earlier work
[11] = Mus musculus, RAW264.7, 100 µg/mL, LPS 1 µg/mL, 24 h
[12] = Mus musculus, RAW264.7, LPS 1 µg/mL, 24 h

Question: For `CC[C@H](C)[C@@H](OC(C)=O)[C@@H](C)C1=C(N)C(=O)C2=C(O[C@]3(C)CC[C@H]4O[C@@H](C(C)(C)O)CC[C@]4(C)[C@H]3[C@@H]2O)C1=O` [Compound 1, cochlioquinone N], which inhibition at 100 µg/mL [1, 11] is on record?
Answer: The inhibition at 100 µg/mL was 51.3 ± 1.65%.

Question: What about the IC50 [1, 12] of the same compound?
Answer: The IC50 was 53.7 µM.

Question: What about the melting point of the same compound?
Answer: The melting point was 185 to 187 °C.

Question: What about the viability at 24 h, 100 µg/mL [2] of the same compound?
Answer: The viability at 24 h, 100 µg/mL was 81.1 ± 3.8%.

Question: What about the viability at 24 h, 100 µg/mL [3] of the same compound?
Answer: Its viability at 24 h, 100 µg/mL is 97.14 ± 0.81%.

Question: What about the viability at 24 h, 100 µg/mL [4] of the same compound?
Answer: The viability at 24 h, 100 µg/mL was 88.5 ± 1.19%.

Question: And the viability at 24 h, 100 µg/mL [5]?
Answer: Its viability at 24 h, 100 µg/mL is 82.6 ± 1.68%.

Question: With `CC[C@H](C)[C@@H](OC(C)=O)[C@@H](C)C1=CC(=O)C2=C(O[C@]3(C)CC[C@H]4O[C@@H](C(C)(C)O)CC[C@]4(C)[C@H]3[C@@H]2O)C1=O` [Compound 2, cochlioquinone A] as the compound, how does the viability at 24 h, 6.25 µg/mL [2] read?
Answer: Its viability at 24 h, 6.25 µg/mL is 71 ± 1.69%.

Question: What about the viability at 24 h, 12.5 µg/mL [2] of the same compound?
Answer: Its viability at 24 h, 12.5 µg/mL is 38.4 ± 3.18%.

Question: And the viability at 24 h, 25 µg/mL [2]?
Answer: Its viability at 24 h, 25 µg/mL is 21 ± 2.61%.

Question: And the viability at 24 h, 50 µg/mL [2]?
Answer: Its viability at 24 h, 50 µg/mL is 13.3 ± 0.89%.

Question: And the viability at 24 h, 100 µg/mL [2]?
Answer: The viability at 24 h, 100 µg/mL was 12.5 ± 1.24%.

Question: And the IC50 [6]?
Answer: The IC50 was 17.6 µM.

Question: And the IC50 at 24 h [3]?
Answer: Its IC50 at 24 h is under 11.7 µM.

Question: What about the viability at 24 h, 6.25 µg/mL [3] of the same compound?
Answer: The viability at 24 h, 6.25 µg/mL was 28.5 ± 1.98%.

Question: What about the viability at 24 h, 12.5 µg/mL [3] of the same compound?
Answer: The viability at 24 h, 12.5 µg/mL was 16.6 ± 0.52%.

Question: And the viability at 24 h, 25 µg/mL [3]?
Answer: Its viability at 24 h, 25 µg/mL is 15 ± 0.29%.

Question: What about the viability at 24 h, 50 µg/mL [3] of the same compound?
Answer: Its viability at 24 h, 50 µg/mL is 11.67 ± 0.08%.

Question: And the viability at 24 h, 100 µg/mL [3]?
Answer: The viability at 24 h, 100 µg/mL was 10.8 ± 0.09%.

Question: And the viability at 24 h, 6.25 µg/mL [4]?
Answer: Its viability at 24 h, 6.25 µg/mL is 73.1 ± 1.09%.

Question: And the viability at 24 h, 12.5 µg/mL [4]?
Answer: Its viability at 24 h, 12.5 µg/mL is 23.1 ± 1.84%.

Question: And the viability at 24 h, 25 µg/mL [4]?
Answer: Its viability at 24 h, 25 µg/mL is 17.9 ± 1.93%.

Question: And the viability at 24 h, 50 µg/mL [4]?
Answer: The viability at 24 h, 50 µg/mL was 14.8 ± 2.54%.

Question: And the viability at 24 h, 100 µg/mL [4]?
Answer: The viability at 24 h, 100 µg/mL was 13.4 ± 0.48%.

Question: What about the IC50 [7] of the same compound?
Answer: The IC50 was 14.3 µM.

Question: What about the viability at 24 h, 6.25 µg/mL [5] of the same compound?
Answer: Its viability at 24 h, 6.25 µg/mL is 30.8 ± 0.4%.

Question: What about the viability at 24 h, 12.5 µg/mL [5] of the same compound?
Answer: Its viability at 24 h, 12.5 µg/mL is 23.4 ± 0.25%.

Question: What about the viability at 24 h, 25 µg/mL [5] of the same compound?
Answer: Its viability at 24 h, 25 µg/mL is 17.6 ± 0.7%.

Question: And the viability at 24 h, 50 µg/mL [5]?
Answer: Its viability at 24 h, 50 µg/mL is 15.6 ± 0.77%.

Question: And the viability at 24 h, 100 µg/mL [5]?
Answer: Its viability at 24 h, 100 µg/mL is 14.9 ± 0.57%.

Question: And the IC50 [8]?
Answer: Its IC50 is under 11.7 µM.

Question: What does the source list for `C/C=C(\C)[C@@H](OC(C)=O)[C@@H](C)C1=CC(=O)C2=C(O[C@]3(C)CC[C@H]4O[C@@H](C(C)(C)O)CC[C@]4(C)[C@H]3[C@@H]2O)C1=O` [Compound 3, stemphone]?
Answer: inhibition at 100 µg/mL ([1]; Mus musculus, RAW264.7, 24 h): 73.41 ± 0.44%; IC50 ([1]; Mus musculus, RAW264.7, 24 h): 32.8 µM; viability at 24 h, 100 µg/mL [9]: 71.4 ± 2.67%

Question: With `CC[C@H](C)[C@@H](OC(C)=O)[C@@H](C)C1=CC(=O)C2=C(O[C@]3(C)CC[C@H]4O[C@@H](C(C)(C)O)CC[C@]4(C)C3=C2)C1=O` [Compound 4, anhydrocochlioquinone A] as the compound, how does the “inhibition ratio, cytotoxicity against A549” value [10] read?
Answer: Its value is 41%.

Question: What about the viability at 24 h, 6.25 µg/mL [2] of the same compound?
Answer: Its viability at 24 h, 6.25 µg/mL is 19.5 ± 2.62%.

Question: And the viability at 24 h, 12.5 µg/mL [2]?
Answer: Its viability at 24 h, 12.5 µg/mL is 14 ± 2.31%.

Question: And the viability at 24 h, 25 µg/mL [2]?
Answer: Its viability at 24 h, 25 µg/mL is 12.9 ± 0.34%.

Question: What about the viability at 24 h, 50 µg/mL [2] of the same compound?
Answer: The viability at 24 h, 50 µg/mL was 11.3 ± 0.4%.

Question: And the viability at 24 h, 100 µg/mL [2]?
Answer: Its viability at 24 h, 100 µg/mL is 10.6 ± 0.2%.

Question: And the IC50 [6]?
Answer: Its IC50 is under 12.1 µM.

Question: And the IC50 at 24 h [3]?
Answer: The IC50 at 24 h was under 12.1 µM.

Question: And the viability at 24 h, 6.25 µg/mL [3]?
Answer: The viability at 24 h, 6.25 µg/mL was 14.3 ± 0.73%.

Question: And the viability at 24 h, 12.5 µg/mL [3]?
Answer: The viability at 24 h, 12.5 µg/mL was 12.4 ± 0.47%.

Question: And the viability at 24 h, 25 µg/mL [3]?
Answer: Its viability at 24 h, 25 µg/mL is 12.1 ± 0.42%.

Question: What about the viability at 24 h, 50 µg/mL [3] of the same compound?
Answer: Its viability at 24 h, 50 µg/mL is 12.8 ± 0.7%.

Question: And the viability at 24 h, 100 µg/mL [3]?
Answer: The viability at 24 h, 100 µg/mL was 11.1 ± 0.43%.

Question: What about the viability at 24 h, 6.25 µg/mL [4] of the same compound?
Answer: The viability at 24 h, 6.25 µg/mL was 12.4 ± 0.17%.

Question: And the viability at 24 h, 12.5 µg/mL [4]?
Answer: Its viability at 24 h, 12.5 µg/mL is 11.6 ± 1.05%.

Question: What about the viability at 24 h, 25 µg/mL [4] of the same compound?
Answer: Its viability at 24 h, 25 µg/mL is 10.2 ± 0.17%.

Question: What about the viability at 24 h, 50 µg/mL [4] of the same compound?
Answer: Its viability at 24 h, 50 µg/mL is 9.35 ± 0.52%.

Question: And the viability at 24 h, 100 µg/mL [4]?
Answer: Its viability at 24 h, 100 µg/mL is 8.4 ± 0.58%.

Question: And the IC50 [7]?
Answer: The IC50 was under 12.1 µM.

Question: What about the viability at 24 h, 6.25 µg/mL [5] of the same compound?
Answer: Its viability at 24 h, 6.25 µg/mL is 17.3 ± 0.33%.

Question: And the viability at 24 h, 12.5 µg/mL [5]?
Answer: Its viability at 24 h, 12.5 µg/mL is 15.6 ± 0.39%.

Question: What about the viability at 24 h, 25 µg/mL [5] of the same compound?
Answer: The viability at 24 h, 25 µg/mL was 15.4 ± 0.42%.

Question: And the viability at 24 h, 50 µg/mL [5]?
Answer: The viability at 24 h, 50 µg/mL was 14.7 ± 0.24%.

Question: What about the viability at 24 h, 100 µg/mL [5] of the same compound?
Answer: Its viability at 24 h, 100 µg/mL is 14.4 ± 0.4%.

Question: What about the IC50 [8] of the same compound?
Answer: The IC50 was under 12.1 µM.

Question: Which IC50 ([1]; LPS 1 µg/mL, 24 h) does the source give for `CCCC1C2=C(CCC3C(=O)OC(=O)C3=CC1CC)C(=O)OC2=O` (stereo not shown) [Compound 5, curvulariahawadride] here?
Answer: Its IC50 is 12.8 µM.

Question: What about the IC50 ([1]; Mus musculus, RAW264.7, 24 h, LPS 1 µg/mL, 24 h) of the same compound?
Answer: The IC50 was 12.9 µM.

Question: What about the inhibition at 100 µg/mL [1, 11] of the same compound?
Answer: Its inhibition at 100 µg/mL is 74 ± 1.14%.

Question: What does the source list for `C/C1=C\C[C@]2(C)C(=O)C(O)=C([C@H](C)CO)[C@H]2C/C=C(\C)[C@@H](O)CC/C(C)=C/CC1` [Compound 6, terpestacin]?
Answer: NO Production Inhibition IC50 ([1]; LPS 1 µg/mL, 24 h): inactive; inhibition at 100 µg/mL [1, 11]: 41 ± 3.36%; viability at 24 h, 100 µg/mL [2]: 99.2 ± 3.84%; viability at 24 h, 100 µg/mL [3]: 99.3 ± 2.51%; viability at 24 h, 100 µg/mL [4]: 92 ± 3.75%; viability at 24 h, 100 µg/mL [5]: 97.7 ± 1.04%

Question: With `COc1ccc2c(c1)c(CC(=O)O)c(C)n2C(=O)c1ccc(Cl)cc1` [Indomethacin, reference compound] as the compound, how does the inhibition at 100 µg/mL [1, 11] read?
Answer: The inhibition at 100 µg/mL was 77.45 ± 0.28%.

Question: And the IC50 [1, 12]?
Answer: The IC50 was 73.4 µM.
